{
  "source": "patent US7998710B2",
  "about": "“Process for purifying difructose dianhydride III” (Nippon Beet Sugar Mfg., Co., Ltd., priority 2003, dated 2011)",
  "origin": "cited, not measured here",
  "key": {"[1]": {"settings": "relative to sucrose"}, "[2]": {"test_system": "absorption of minerals such as Ca", "settings": "Patent Document 1"}},
  "data": [
    {"compound": "OC[C@H]1O[C@@]2(CO[C@]3(CO)O[C@H](CO)[C@@H](O)[C@@H]3O2)[C@@H](O)[C@@H]1O", "note": "[DFA III, α-D-fructofuranose-β-D-fructofuranose-2′,1:2,3′-dianhydride]", "values": [
      {"measurement": "solubility in water compared with that of sucrose", "setting": "[1]", "result": "90-95%"},
      {"measurement": "effect of promoting the absorption of minerals such as Ca", "setting": "[2]", "result": "promoting the absorption of minerals such as Ca"}
    ]}
  ]
}
